Reference: ChEMBL document CHEMBL1201862, “PubChem BioAssay data set” (2004)
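Exposure lasted 48 hours, with cells grown in 96-well plates and compounds tested at five concentrations. Abbreviation: GI50, concentration required for 50% inhibition of growth.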 Activity calls are given as the source filed them. Rule as the data show it: active = GI50 up to about 1.1 µM and inactive = higher.

What was measured:
Assay in all cases: NCI anticancer screen, dose series, 48 h
786-0 = tested on: 786-0
A498 = tested on: A498
ACHN = tested on: ACHN
CAKI-1 = tested on: CAKI-1
CCRF-CEM = tested on: CCRF-CEM
DU-145 = tested on: DU-145
EKVX = tested on: EKVX
HCC 2998 = tested on: HCC 2998
HCT-116 = tested on: HCT-116
HCT-15 = tested on: HCT-15
HL-60 = tested on: HL-60
HOP-62 = tested on: HOP-62
HOP-92 = tested on: HOP-92
HT-29 = tested on: HT-29
Hs-578T = tested on: Hs-578T
IGROV-1 = tested on: IGROV-1
K562 = tested on: K562
KM12 = tested on: KM12
LOX IMVI = tested on: LOX IMVI
M14 = tested on: M14
MCF7 = tested on: MCF7
MDA-MB-231 = tested on: MDA-MB-231
MDA-MB-435 = tested on: MDA-MB-435
MDA-N = tested on: MDA-N
MOLT-4 = tested on: MOLT-4
NCI-H226 = tested on: NCI-H226
NCI-H23 = tested on: NCI-H23
NCI-H460 = tested on: NCI-H460
NCI-H522 = tested on: NCI-H522
NCI/ADR-RES = tested on: NCI/ADR-RES
OVCAR-3 = tested on: OVCAR-3
OVCAR-4 = tested on: OVCAR-4
OVCAR-5 = tested on: OVCAR-5
OVCAR-8 = tested on: OVCAR-8
PC-3 = tested on: PC-3
RPMI-8226 = tested on: RPMI-8226
RXF 393 = tested on: RXF 393
SF-268 = tested on: SF-268
SF-295 = tested on: SF-295
SF-539 = tested on: SF-539
SK-MEL-28 = tested on: SK-MEL-28
SK-MEL-2 = tested on: SK-MEL-2
SK-MEL-5 = tested on: SK-MEL-5
SK-OV-3 = tested on: SK-OV-3
SNB-75 = tested on: SNB-75
SR = tested on: SR
SW-620 = tested on: SW-620
T47D = tested on: T47D
TK-10 = tested on: TK-10
U-251 = tested on: U-251
UACC-257 = tested on: UACC-257
UO-31 = tested on: UO-31
A549 = tested on: A549
BT-549 = tested on: BT-549
COLO 205 = tested on: COLO 205
SN12C = tested on: SN12C
UACC-62 = tested on: UACC-62
Malme-3M = tested on: Malme-3M
SNB-19 = tested on: SNB-19

Compound: O=C(c1cc2c(c3ccccc13)NCCN=C2C(F)(F)F)C(F)(F)F
- GI50 (786-0): 20.8 µM (inactive)
- GI50 (A498): 17.1 µM (inactive)
- GI50 (ACHN): 22.8 µM (inactive)
- GI50 (CAKI-1): 32.4 µM (inactive)
- GI50 (CCRF-CEM): 17 µM (inactive)
- GI50 (DU-145): 41.4 µM (inactive)
- GI50 (EKVX): 47.4 µM (inactive)
- GI50 (HCC 2998): 17.5 µM (inactive)
- GI50 (HCT-116): 26.7 µM (inactive)
- GI50 (HCT-15): 45.3 µM
- GI50 (HL-60): 16.3 µM (inactive)
- GI50 (HOP-62): 19.7 µM (inactive)
- GI50 (HOP-92): 21.9 µM (inactive)
- GI50 (HT-29): 11.6 µM (inactive)
- GI50 (Hs-578T): 14.3 µM (inactive)
- GI50 (IGROV-1): 29.6 µM (inactive)
- GI50 (K562): 7.16 µM (inactive)
- GI50 (KM12): 19.4 µM (inactive)
- GI50 (LOX IMVI): 13.7 µM (inactive)
- GI50 (M14): 24.9 µM (inactive)
- GI50 (MCF7): 19.2 µM (inactive)
- GI50 (MDA-MB-231): 20.2 µM (inactive)
- GI50 (MDA-MB-435): 34.2 µM (inactive)
- GI50 (MDA-N): 21.4 µM (inactive)
- GI50 (MOLT-4): 7.11 µM (inactive)
- GI50 (NCI-H226): 18.5 µM (inactive)
- GI50 (NCI-H23): 40.6 µM (inactive)
- GI50 (NCI-H460): 15.5 µM (inactive)
- GI50 (NCI-H522): 20.6 µM (inactive)
- GI50 (NCI/ADR-RES): 27 µM (inactive)
- GI50 (OVCAR-3): 26 µM (inactive)
- GI50 (OVCAR-4): 38.7 µM (inactive)
- GI50 (OVCAR-5): 65.3 µM (inactive)
- GI50 (OVCAR-8): 34.5 µM (inactive)
- GI50 (PC-3): 14.6 µM (inactive)
- GI50 (RPMI-8226): 6.95 µM (inactive)
- GI50 (RXF 393): 23.3 µM (inactive)
- GI50 (SF-268): 24 µM (inactive)
- GI50 (SF-295): 16 µM (inactive)
- GI50 (SF-539): 20.1 µM (inactive)
- GI50 (SK-MEL-28): 18.9 µM (inactive)
- GI50 (SK-MEL-2): 18.7 µM (inactive)
- GI50 (SK-MEL-5): 16.4 µM (inactive)
- GI50 (SK-OV-3): 37.4 µM (inactive)
- GI50 (SNB-75): 21.6 µM (inactive)
- GI50 (SR): 3.94 µM (inactive)
- GI50 (SW-620): 35.2 µM (inactive)
- GI50 (T47D): 21.4 µM (inactive)
- GI50 (TK-10): 24.9 µM (inactive)
- GI50 (U-251): 13.5 µM (inactive)
- GI50 (UACC-257): 19.3 µM (inactive)
- GI50 (UO-31): 51.9 µM (inactive)

Compound: CC(C)(C)c1cc(-c2cc(C(C)(C)C)n(-c3ccccc3)n2)nn1-c1ccccc1
- GI50 (786-0): > 100 µM (inactive)
- GI50 (A498): > 100 µM (inactive)
- GI50 (A549): > 100 µM (inactive)
- GI50 (ACHN): 23.2 µM (inactive)
- GI50 (BT-549): > 100 µM (inactive)
- GI50 (CAKI-1): > 100 µM (inactive)
- GI50 (CCRF-CEM): > 100 µM (inactive)
- GI50 (COLO 205): 48.6 µM (inactive)
- GI50 (DU-145): > 100 µM (inactive)
- GI50 (EKVX): > 100 µM (inactive)
- GI50 (HCC 2998): 31.3 µM (inactive)
- GI50 (HCT-116): > 100 µM (inactive)
- GI50 (HCT-15): > 100 µM
- GI50 (HL-60): > 100 µM (inactive)
- GI50 (HOP-62): > 100 µM (inactive)
- GI50 (HOP-92): > 100 µM (inactive)
- GI50 (HT-29): 68.9 µM (inactive)
- GI50 (IGROV-1): > 100 µM (inactive)
- GI50 (K562): 3.27 µM (inactive)
- GI50 (KM12): 84.5 µM (inactive)
- GI50 (LOX IMVI): 6.43 µM (inactive)
- GI50 (M14): > 100 µM (inactive)
- GI50 (MCF7): > 100 µM (inactive)
- GI50 (MDA-MB-231): > 100 µM (inactive)
- GI50 (MDA-MB-435): 49.8 µM (inactive)
- GI50 (MOLT-4): > 100 µM (inactive)
- GI50 (NCI-H226): > 100 µM (inactive)
- GI50 (NCI-H23): > 100 µM (inactive)
- GI50 (NCI-H460): 61.5 µM (inactive)
- GI50 (NCI-H522): > 100 µM (inactive)
- GI50 (NCI/ADR-RES): > 100 µM (inactive)
- GI50 (OVCAR-3): > 100 µM (inactive)
- GI50 (OVCAR-4): > 100 µM (inactive)
- GI50 (OVCAR-5): > 100 µM (inactive)
- GI50 (OVCAR-8): > 100 µM (inactive)
- GI50 (PC-3): 65.6 µM (inactive)
- GI50 (RPMI-8226): > 100 µM (inactive)
- GI50 (RXF 393): > 100 µM (inactive)
- GI50 (SF-268): > 100 µM (inactive)
- GI50 (SF-295): > 100 µM (inactive)
- GI50 (SF-539): > 100 µM (inactive)
- GI50 (SK-MEL-28): > 100 µM (inactive)
- GI50 (SK-MEL-2): > 100 µM (inactive)
- GI50 (SK-MEL-5): > 100 µM (inactive)
- GI50 (SK-OV-3): > 100 µM (inactive)
- GI50 (SN12C): > 100 µM (inactive)
- GI50 (SNB-75): > 100 µM (inactive)
- GI50 (SR): > 100 µM (inactive)
- GI50 (SW-620): 8.57 µM (inactive)
- GI50 (T47D): 59.2 µM (inactive)
- GI50 (TK-10): > 100 µM (inactive)
- GI50 (U-251): > 100 µM (inactive)
- GI50 (UACC-257): > 100 µM (inactive)
- GI50 (UACC-62): 11.6 µM (inactive)
- GI50 (UO-31): 30.4 µM (inactive)

Compound: CN1CCN(c2ccc3[nH]c(-c4ccc5[nH]c(-c6ccc(N(C)CCCl)cc6)nc5c4)nc3c2)CC1
- GI50 (786-0): 0.13 µM (active)
- GI50 (A498): 2.56 µM (inactive)
- GI50 (A549): 0.286 µM (active)
- GI50 (ACHN): 0.942 µM (active)
- GI50 (CAKI-1): 4.41 µM (inactive)
- GI50 (CCRF-CEM): < 0.01 µM (active)
- GI50 (COLO 205): 0.17 µM (active)
- GI50 (DU-145): 0.183 µM (active)
- GI50 (HCC 2998): 0.461 µM (active)
- GI50 (HCT-116): 0.239 µM (active)
- GI50 (HCT-15): 12.6 µM
- GI50 (HL-60): < 0.01 µM (active)
- GI50 (HOP-62): 0.156 µM (active)
- GI50 (HOP-92): 0.222 µM (active)
- GI50 (HT-29): 0.217 µM (active)
- GI50 (Hs-578T): 0.206 µM (active)
- GI50 (IGROV-1): 0.0382 µM (active)
- GI50 (K562): 0.191 µM (active)
- GI50 (KM12): 0.811 µM (active)
- GI50 (LOX IMVI): 0.0311 µM (active)
- GI50 (M14): 1.08 µM (active)
- GI50 (MCF7): < 0.01 µM (active)
- GI50 (MDA-MB-231): 9.64 µM (inactive)
- GI50 (MDA-MB-435): 0.144 µM (active)
- GI50 (MDA-N): 0.226 µM (active)
- GI50 (MOLT-4): 0.0127 µM (active)
- GI50 (Malme-3M): 0.208 µM (active)
- GI50 (NCI-H226): 0.705 µM (active)
- GI50 (NCI-H23): 0.25 µM (active)
- GI50 (NCI-H460): 0.222 µM (active)
- GI50 (NCI-H522): 0.0163 µM (active)
- GI50 (NCI/ADR-RES): 40.6 µM (inactive)
- GI50 (OVCAR-4): 0.305 µM (active)
- GI50 (OVCAR-5): 2.45 µM (inactive)
- GI50 (OVCAR-8): 0.247 µM (active)
- GI50 (PC-3): 0.136 µM (active)
- GI50 (RPMI-8226): 1.62 µM (inactive)
- GI50 (RXF 393): 0.128 µM (active)
- GI50 (SF-268): 0.0622 µM (active)
- GI50 (SF-295): 1.76 µM (inactive)
- GI50 (SF-539): 0.109 µM (active)
- GI50 (SK-MEL-28): 0.32 µM (active)
- GI50 (SK-MEL-2): 0.22 µM (active)
- GI50 (SK-MEL-5): 0.18 µM (active)
- GI50 (SK-OV-3): 0.196 µM (active)
- GI50 (SN12C): 0.0461 µM (active)
- GI50 (SNB-19): 0.0538 µM (active)
- GI50 (SNB-75): 0.152 µM (active)
- GI50 (SR): 0.0301 µM (active)
- GI50 (SW-620): 0.14 µM (active)
- GI50 (T47D): 0.174 µM (active)
- GI50 (TK-10): 2.87 µM (inactive)
- GI50 (U-251): 0.0429 µM (active)
- GI50 (UACC-257): 1.66 µM (inactive)
- GI50 (UACC-62): 0.15 µM (active)
- GI50 (UO-31): 18.7 µM (inactive)
